Data taken from patent US20220395500A1, “SMALL MOLECULE ACTIVATORS OF INTERFERON REGULATORY FACTOR 3 AND METHODS OF USE THEREOF” (Neuralexo, Inc., priority 2020, published 2022).
Read-outs that look alike come from different tables or passages of the source.

Assays:
[1] = tested on: IRF-Lucia luciferase reporter (ISRE) in J774-Dual cells; test: J774-Dual IRF-Lucia luciferase reporter assay (ISRE activation); assay type: cell-based, mouse; details: for EC50: read-out: J774 IRF EC50
In short: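 Mouse J774-Dual macrophages, seeded in growth medium 24 h at 37 °C, 5% CO2 before treatment; secreted IRF-Lucia (ISRE-driven) and NF-κB-SEAP read with QUANTI-Luc and QUANTI-Blue. EC50 and CC50 from 8-point dose-response, cytotoxicity by CellTiter-Glo; ISRE:NF-κB ratio calculated.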

[2] = tested on: NF-κB-SEAP reporter in THP1-Dual cells; test: THP1-Dual NF-κB-SEAP reporter counterscreen; assay type: cell-based, human; details: for EC50: read-out: THP1 NFkB EC50
In short: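 THP1-Dual cells differentiated 48 h with 5 ng/mL PMA, washed, then treated 24 h with compounds at 10 μM final; LPS 313 ng/mL as control. Supernatant read for Lucia luciferase (ISRE) by QUANTI-Luc luminescence and for NF-κB-SEAP by QUANTI-Blue absorbance at 630 nm after 1 h at 37° C.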

[3] = Mouse Reporter Cell Line J774, at peak
[4] = Mus musculus, J774, Mouse Reporter Cell Line J774
[5] = Homo sapiens, THP1-Dual, Human Reporter Cell Line THP1

Structure (SMILES)	J774 IRF % activation at peak [1, 3]	EC50 [1, 4]	EC50 [2, 5]	further results
Cc1ccc(NC(=O)c2cc(NC(=O)c3ccccc3)ccc2N2CCOCC2)cc1Cl [NB-1]	54.52%	6.57 µM	2.54 µM	–
Cc1ccc(NC(=O)c2cc(NC(=O)Cc3ccccc3)ccc2N2CCOCC2)cc1Cl [NB-3]	2.603%	8.54 µM	–	activation at 25 µM ([2]; THP1-Dual, 24 h, Human Reporter Cell Line THP1, @25 uM, read-out: THP1 NFkB % activation at peak): 38%
Cc1ccc(NC(=O)c2cc(NC(=O)c3cccs3)ccc2N2CCOCC2)cc1Cl [NB-8]	52.86%	5.67 µM	13.9 µM	–
Cc1ccc(NC(=O)c2cc(NC(=O)c3cccs3)ccc2N2CCOCC2)cc1 [NB-17]	16.67%	8.68 µM	~3.14 µM	–
O=C(Nc1ccc(N2CCOCC2)c(C(=O)Nc2ccc(OCc3ccccc3)cc2)c1)c1cccs1 [NB-18]	2.303%	~4.84 µM	3.66 µM	–
Cc1ccc(NC(=O)c2cc(NC(=O)c3cccs3)ccc2N2CCOCC2)cc1Br [NB-23]	72.79%	6.56 µM	4.59 µM	–
Cc1cc(NC(=O)c2sc3cc(Cl)ccc3c2Cl)ccc1NC(=O)c1ccco1 [NC-2]	–	–	–	J774 IRF % activation at peak ([1]; Mouse Reporter Cell Line): 4.6%; EC50 ([1]; Mus musculus, J774, Mouse Reporter Cell Line, 8-point dose response): 14.6 µM; EC50 ([2]; Homo sapiens, THP1-Dual, Human Reporter Cell Line, 8-point dose response): 15.4 µM
COc1ccc(C(=O)Nc2cc(-c3nc4cc(C)c(C)cc4o3)ccc2C)cc1[N+](=O)[O-] [ND13, N-(5-(5,6-dimethylbenzo[d]oxazol-2-yl)-2-methylphenyl)-4-methoxy-3-nitrobenzamide]	220.5%	0.956 µM	0.556 µM	–
COc1ccc(C(=O)Nc2cc(-c3nc4ccccc4s3)ccc2C)cc1[N+](=O)[O-] [ND52, N-[5-(1,3-benzothiazol-2-yl)-2-methylphenyl]-4-methoxy-3-nitrobenzamide]	131.7%	5.87 µM	~5.51 µM	–
COc1ccc(C(=O)Nc2nc(-c3cc4ccccc4oc3=O)cs2)cc1 [ND-1]	28.40%	8.82 µM	~12.7 µM	–
COc1ccc(C(=O)Nc2cc(-c3nc4cc(C(C)C)ccc4o3)ccc2C)cc1[N+](=O)[O-] [ND-2]	141.80%	4.81 µM	4.47 µM	–
CC(C)CC(=O)Nc1ccc2oc(-c3cccc(I)c3)nc2c1 [ND-5]	12.45%	~12.9 µM	12.3 µM	–
COc1ccc(-c2nc3cc(C(C)C)ccc3o2)cc1NC(=O)c1ccc(C)c([N+](=O)[O-])c1 [ND-16]	83.02%	3.58 µM	3.25 µM	–
COc1ccc(C(=O)Nc2cc(-c3nc4ccccc4s3)ccc2C)cc1[N+](=O)[O-] [ND-38]	114%	–	–	EC50 ([1]; Mouse Reporter Cell Line J774): 7.67 µM; EC50 ([2]; Human Reporter Cell Line THP1): ~3.12 µM
Cc1ccc(-c2nc3ccccc3s2)cc1NC(=O)c1cccc(Cl)c1 [ND-80]	26.88%	~10.1 µM	~6.55 µM	–
ClCCCOc1ccc(-c2nc3cc(OCCCN4CCCC4)ccc3o2)cc1 [ND-94]	5.09%	4.53 µM	~23.6 µM	–
COCOc1ccc2oc(-c3ccc(C)c(NC(=O)c4ccc(OC)c([N+](=O)[O-])c4)c3)nc2c1 [ND-95, 4-methoxy-N-(5-(5-(methoxymethoxy)benzo[d]oxazol-2-yl)-2-methylphenyl)-3-nitrobenzamide]	98.11%	4.1 µM	1.27 µM	–
COCOc1ccc2oc(-c3ccc(C)c([N+](=O)[O-])c3)nc2c1 [ND-96]	5.389%	18.9 µM	~4.09 µM	–
